Data on two compounds can be found in patent US5795882A, “Method of treating prostatic diseases using delayed and/or sustained release vitamin D formulations” (Bone Care International, Inc., priority 1996, dated 1998).

The nature of series [1]: In vitro thermal conversion of 1α-hydroxyprevitamin D to 1α-hydroxyvitamin D. Format: physicochemical. The note with it: in ethanol, 37° C. Here is the method:
A series of experiments were conducted which address the in vitro conversion of previtamin to vitamin for three 1α-hydroxyprevitamin D's: 1α-hydroxyprevitamin D2, 1α,24-dihydroxyprevitamin D2 and 1α-hydroxyprevitamin D3. Each 1α-hydroxyprevitamin D was dissolved in ethanol, incubated at 37° C. in a water bath, and samples taken at two-hour intervals. An analytical HPLC separation was performed on each sample to quantify the thermal conversion of the previtamin to the vitamin form. The data collected were normalized to account for the presence of any vitamin form in the initial formulation (≤10%). The results are presented in FIG. 1 which is a plot of % previtamin versus time in hours. Linear regression lines were generated for each previtamin.

Another series has as its target T1, Vitamin D Receptor (Homo sapiens, UniProt P11473).
T1 sequence (P11473 1-427): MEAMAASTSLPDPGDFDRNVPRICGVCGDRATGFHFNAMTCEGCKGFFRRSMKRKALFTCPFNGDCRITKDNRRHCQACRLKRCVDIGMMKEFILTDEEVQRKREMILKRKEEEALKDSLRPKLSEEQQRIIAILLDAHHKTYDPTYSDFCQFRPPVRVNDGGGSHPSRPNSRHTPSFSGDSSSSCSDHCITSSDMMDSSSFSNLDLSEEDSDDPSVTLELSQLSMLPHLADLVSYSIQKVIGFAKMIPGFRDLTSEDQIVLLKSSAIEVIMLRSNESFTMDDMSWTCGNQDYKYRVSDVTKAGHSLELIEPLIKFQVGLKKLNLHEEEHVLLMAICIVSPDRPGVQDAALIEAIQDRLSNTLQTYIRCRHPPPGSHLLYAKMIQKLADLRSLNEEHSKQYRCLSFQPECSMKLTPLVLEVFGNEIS
Kind of series: VDR competitive binding assay (Examples 6-8). The note with it: in words; Examples 7 and 8 versus the vitamin form.

The nature of series [2]: Oral bioavailability of 1α,24-(OH)2 preD2 in normal rats (Example 2). Format: in vivo, rat. How it is done: In this experiment, normal rats maintained on a normal diet were assigned randomly to treatment and control groups. The rats were orally administered single doses of 1α,24-(OH)2 preD2 in a fractionated coconut oil (FCO) (1.5 μg, which was approximately 7.5 μg/kg). The control group received only the vehicle. For both groups, blood was obtained at 6 hours postdosing and analyzed for serum levels of the vitamin form, 1α,24-dihydroxyvitamin D2.

In series [3] the test system is advanced androgen-independent prostate cancer. As to the kind of experiment: Clinical study in advanced androgen-independent prostate cancer. The format is in vivo, human. The conditions noted are these: for progression of metastatic disease (CAT scans, x-rays, bone scans): two years. An excerpt: Patients with advanced androgen-independent prostate cancer participate in an open-labeled study of 1α,24-(OH)2 preD2. […] On admission to the study , patients begin a course of therapy with oral 1α,24-(OH)2 preD2 lasting 26 weeks, while discontinuing any previous use of calcium supplements, vitamin D supplements, and vitamin D hormone replacement therapies. During treatment, the patients are monitored at regular intervals for: (1) hypercalcemia, hyperphosphatemia, hypercalciuria, hyperphosphaturia and other toxicity; (2) evidence of changes in the progression of metastatic disease; and (3) compliance with the prescribed test drug dosage.
The study is conducted in two phases. During the first phase, the maximal tolerated dosage (MTD) of daily oral 1α,24-(OH)2 preD2 is determined by administering progressively higher dosages to successive groups of patients. All doses are administered in the morning before breakfast. The first group of patients is treated with 25 μg of 1α,24-(OH)2 preD2. Subsequent groups of patients are treated with 50, 75 and 100 μg/day. Dosing is continued uninterrupted for the duration of the study unless serum calcium exceeds 11.6 mg/dL or other toxicity of grade 3 or 4 is observed, in which case dosing is held in abeyance until resolution of the observed toxic effect(s) and then resumed at a level which has been decreased by 10.0 μg.
During the second phase, patients are treated with 1α,24-(OH)2 preD2 for 24 months at 0.5 and 1.0 times the MTD.
The study of Example 25 is repeated for the active vitamin D compound, 1α,25-(OH)2 D2 in DSR form.

The nature of series [4]: Comparison of oral bioavailability in rachitic rats (Example 5). Format: in vivo, rat. The conditions noted are these: oral, 12 h. How it is done:
Three-week-old rats were maintained on a vitamin D-deficient diet containing normal levels of calcium and phosphorus for 3-6 weeks until marked hypocalcemia was observed. […] A control group received only the vehicle. For all treatment groups, blood was obtained at 12 hours postdosing, and analyzed for serum levels of the vitamin form.

Series [5] can be described thus: Blood level of 1α,25-(OH)2 D3 in vitamin D-deficient rats after oral dosing (Example 3). Format: in vivo, rat. The conditions noted are these: oral 0.25 μg/kg, 4 h. How it is done:
Male weanling rats are fed a diet deficient in vitamin D and with normal calcium (0.47%). […] Four hours after administration, the rats are killed and their blood level of 1α,25-(OH)2 D3 is measured using a standard technique.

Series [6] can be described thus: Equilibration of previtamin to vitamin form during binding incubation (HPLC). The note with it: end of the VDR binding incubation, read-out: fraction equilibrated to the vitamin form. The format is physicochemical.
A short description of series [7]: Pharmacokinetics of 1α,25-(OH)2 D3 in vitamin D-deficient rats after oral dosing (Example 4). The format is in vivo, rat. The conditions noted are these: single oral dose, 2-48 h. Here is the method: One group is killed 8 hours after dosing with the vehicle. […] The blood is collected and analyzed for 1α,25-(OH)2 D3 levels.

`CC1=C(/C=C\C2=CCC[C@]3(C)[C@@H]([C@H](C)/C=C/C(C)(O)C(C)C)CC[C@@H]23)C[C@@H](O)C[C@@H]1O` (stereo partly drawn) [1α,24-(OH)2 preD2, 1α,24-dihydroxyprevitamin D2] showed a half-life in series [1] of 12.2 h. Moreover, the VDR binding affinity result on Vitamin D Receptor is recorded as “substantially less affinity for the receptor than does its vitamin form”. The “oral bioavailability (increased circulating 1α,24-(OH)2 D2)” value in series [2] is listed as “bioavailable”. The “bone pain associated with metastatic disease” value in series [3] (patients treated with the MTD for at least six months) is reported as “significantly diminished”. Besides, in series [3] (patients, daily oral), the “circulating levels of 1α,25-(OH)2 D3” value is on record as “suppressed, often to undetectable levels”; the “levels of circulating 1α,24-(OH)2 D2 versus dosage” value is “increase proportionately with the dosage administered”; the “serum and urine calcium” value is reported as “elevated in a dose responsive manner”. In series [3] (patients, daily oral, first phase), the “maximal tolerated dosage (MTD)” value is reported as “above 20.0 μg/day”. Further, in series [3] (higher dosage (1.0 times the MTD)), the “progression of metastatic disease (CAT scans, x-rays, bone scans)” value is “partial or complete remission”. In series [3] (lower dosage (0.5 times the MTD)), the “progression of metastatic disease (CAT scans, x-rays, bone scans)” value is reported as “stable disease or partial remission”.

With `CC1=C(/C=C\C2=CCC[C@]3(C)[C@@H]([C@H](C)CCCC(C)(C)O)CC[C@@H]23)C[C@@H](O)C[C@@H]1O` [1α,25-(OH)2 preD3, 1α,25-dihydroxyprevitamin D3], in series [4], the “oral bioavailability versus 1α,25-(OH)2 D3” value was “greater bioavailability than the active form of the vitamin”. This compound gave a half-life in series [1] of 17.7 h. The “blood level of 1α,25-(OH)2 D3 versus control” value in series [5] is on record as “significantly elevated”. Moreover, the degraded in series [6] is about 2%. In addition, in series [7], the “1α,25-(OH)2 D3 serum levels” value was “increased 1α,25-(OH)2 D3 serum levels”; the “time profile of serum 1α,25-(OH)2 D3 increase versus dosing with 1α,25-(OH)2 D3” value is “more gradual and sustained for a greater duration”.
